The series can be described thus: Solubility measurement (DMSO solution method), McIlvaine buffer pH 4.5 or 6.8. In kind it is physicochemical. As to conditions: aqueous buffer, kinetic from dmso stock, DMSO stock diluted to 250 μM, 24 h shaking at ambient temperature. The method, then: The DMSO solution is diluted with an aqueous medium (Mcllvaine buffer with pH=4.5 or 6.8) to a final concentration of 250 μM. After 24 h of shaking at ambient temperature a potentially formed precipitate is removed by filtration. The concentration of the test compound in the filtrate is determined by LC-UV methods by calibrating the signal to the signal of a reference solution with complete dissolution of the test compound in acetonitrile/water (1:1) with known concentration.

Setting [1] is: McIlvaine buffer pH 4.5, read-out: solubility pH 4.5.
Setting [2] is: McIlvaine buffer pH 6.8, read-out: solubility pH 6.8.

Values after ≈ are worked out from the molar mass of the structure shown. Read-outs that look alike come from different tables or passages of the source.

Turning to `COCc1cn(-c2cc(O[C@@H](C)[C@@H]3CCCN3C)nc(-c3noc4c3CCC[C@@]43CCCc4sc(N)c(C#N)c43)n2)nn1` [II-121], the solubility (in general, the concentration that dissolves in the medium under given conditions) at 24 h under setting [1] is 109 µg/mL (≈ 181 µM) and the solubility at 24 h under setting [2] amounted to 69 µg/mL (≈ 115 µM).
For the molecule `C[C@H](Oc1cc(N2CCOC3(CC3)C2)nc(-c2noc3c2CCC[C@@]32CCCc3sc(N)c(C#N)c32)n1)[C@@H]1CCCN1C` [II-61], the solubility at 24 h is 111 µg/mL (≈ 184 µM) under setting [1] and 41 µg/mL (≈ 68.1 µM) under setting [2].
Consider `C[C@H](Oc1cc(-c2cc[nH]n2)nc(-c2noc3c2CCC[C@@]32CCCc3sc(N)c(C#N)c32)n1)[C@@H]1CCCN1C` [II-71], for which the solubility at 24 h under setting [1] was greater than 112 µg/mL and the solubility at 24 h under setting [2] amounted to 82 µg/mL (≈ 147 µM).
On to `C[C@H](Oc1cc(-c2ccn(C3COC3)n2)nc(-c2noc3c2CCC[C@@]32CCCc3sc(N)c(C#N)c32)n1)[C@@H]1CCCN1C` [II-109], for which the solubility at 24 h stood at 117 µg/mL (≈ 191 µM) under setting [1] and 61 µg/mL (≈ 99.5 µM) under setting [2].
In the case of `CO[C@@H]1C[C@@H]([C@H](C)Oc2cc(-c3ccn(C4COC4)n3)nc(-c3noc4c3CCC[C@@]43CCCc4sc(N)c(C#N)c43)n2)N(C)C1` [II-107], the solubility at 24 h is, setting by setting: under setting [1], greater than 162 µg/mL; under setting [2], less than 1 µg/mL.
For the molecule `C[C@H](Oc1cc(-c2ccn(C3CC3)n2)nc(-c2noc3c2CCC[C@@]32CCCc3sc(N)c(C#N)c32)n1)[C@@H]1CCCN1C` [II-98], the solubility at 24 h was 83 µg/mL (≈ 139 µM) under setting [1] and less than 1 µg/mL under setting [2].
Consider `C[C@H](Oc1cc(N2CCC[C@H](O)C2)nc(-c2noc3c2CCC[C@@]32CCCc3sc(N)c(C#N)c32)n1)[C@@H]1CCCN1C` [II-57], for which the solubility at 24 h amounted to 109 µg/mL (≈ 185 µM) under setting [1] and 101 µg/mL (≈ 171 µM) under setting [2].
Consider `C[C@H](Oc1cc(N2CC[C@H](N(C)C)C2)nc(-c2onc3c2CCC[C@@]32CCCc3sc(N)c(C#N)c32)n1)[C@@H]1CCCN1C` [I-11], for which the solubility at 24 h under setting [1] is greater than 141 µg/mL and the solubility at 24 h under setting [2] was 112 µg/mL (≈ 186 µM).
In the same order, the values of `CO[C@@H]1C[C@@H]([C@H](C)Oc2cc(-c3cnn(C)n3)nc(-c3noc4c3CCC[C@@]43CCCc4sc(N)c(C#N)c43)n2)N(C)C1` [II-62] are greater than 129 µg/mL and less than 1 µg/mL.
Turning to `C[C@H](Oc1cc(N2C[C@H](C)N[C@@H](C)C2)nc(-c2onc3c2CCC[C@@]32CCCc3sc(N)c(C#N)c32)n1)[C@@H]1CCCN1C` [I-6], the solubility at 24 h runs as follows: under setting [1], greater than 147 µg/mL; under setting [2], greater than 144 µg/mL.
Consider `C[C@H](Oc1cc(N2CC[C@@H](O)C2)nc(-c2noc3c2CCC[C@@]32CCCc3sc(N)c(C#N)c32)n1)[C@@H]1CCCN1C` [II-66], for which the solubility at 24 h by setting is: under setting [1], greater than 117 µg/mL; under setting [2], 112 µg/mL (≈ 195 µM).
Turning to `C[C@H](Oc1cc(N2CCNC[C@]23CCOC3)nc(-c2noc3c2CCC[C@@]32CCCc3sc(N)c(C#N)c32)n1)[C@@H]1CCCN1C` [II-50], the solubility at 24 h is greater than 144 µg/mL under setting [1] and greater than 135 µg/mL under setting [2].
Take `C[C@H](Oc1cc(-n2cnc3cccnc32)nc(-c2noc3c2CCC[C@@]32CCCc3sc(N)c(C#N)c32)n1)[C@@H]1CCCN1C` [II-65]: the solubility at 24 h under setting [1] stood at 7 µg/mL (≈ 11.5 µM) and the solubility at 24 h under setting [2] was less than 1 µg/mL.
In the case of `C[C@H](Oc1cc(-n2ccnc2Cl)nc(-c2noc3c2CCC[C@@]32CCCc3sc(N)c(C#N)c32)n1)[C@@H]1CCCN1C` [II-93], the solubility at 24 h was 97 µg/mL (≈ 164 µM) under setting [1] and 20 µg/mL (≈ 33.8 µM) under setting [2].
For the molecule `Cc1nccn1-c1cc(O[C@@H](C)[C@@H]2CCCN2C)nc(-c2noc3c2CCC[C@@]32CCCc3sc(N)c(C#N)c32)n1` [II-79], the solubility at 24 h reads like this: under setting [1], greater than 154 µg/mL; under setting [2], 102 µg/mL (≈ 179 µM).
The corresponding values for `C[C@H](Oc1cc(-c2cnn(C)c2)nc(-c2noc3c2CCC[C@@]32CCCc3sc(N)c(C#N)c32)n1)[C@@H]1CCCN1C` [II-74] are 57 µg/mL (≈ 99.9 µM) and 29 µg/mL (≈ 50.8 µM).
As for `Cc1nc(-c2cc(O[C@@H](C)[C@@H]3CCCN3C)nc(-c3noc4c3CCC[C@@]43CCCc4sc(N)c(C#N)c43)n2)cs1` [II-103], the solubility at 24 h runs as follows: under setting [1], 53 µg/mL (≈ 90.2 µM); under setting [2], less than 1 µg/mL.
With `C[C@H](Oc1cc(C2=CCOCC2)nc(-c2noc3c2CCC[C@@]32CCCc3sc(N)c(C#N)c32)n1)[C@@H]1CCCN1C` [II-67], the solubility at 24 h by setting is: under setting [1], 98 µg/mL (≈ 171 µM); under setting [2], 41 µg/mL (≈ 71.6 µM).
Consider `Cc1cn(-c2cc(O[C@@H](C)[C@@H]3CCCN3C)nc(-c3noc4c3CCC[C@@]43CCCc4sc(N)c(C#N)c43)n2)nn1` [II-106], for which the solubility at 24 h by setting is: under setting [1], 107 µg/mL (≈ 187 µM); under setting [2], 13 µg/mL (≈ 22.7 µM).
Regarding `C[C@H](Oc1cc(N2CCCC2=O)nc(-c2noc3c2CCC[C@@]32CCCc3sc(N)c(C#N)c32)n1)[C@@H]1CCCN1C` [II-73], the solubility at 24 h runs as follows: under setting [1], greater than 124 µg/mL; under setting [2], 88 µg/mL (≈ 153 µM).
In the same order, the values of `C[C@H]1CN(C)CCCN1c1cc(N2CCN(C)CC2)nc(-c2onc3c2CCC[C@@]32CCCc3sc(N)c(C#N)c32)n1` [I-7] are greater than 139 µg/mL and greater than 133 µg/mL.
With `C[C@H](Oc1cc(N2CCC[C@@H](O)C2)nc(-c2noc3c2CCC[C@@]32CCCc3sc(N)c(C#N)c32)n1)[C@@H]1CCCN1C` [II-59], the solubility at 24 h is greater than 133 µg/mL under setting [1] and greater than 123 µg/mL under setting [2].
Consider `C[C@H](Oc1cc(C2COCCO2)nc(-c2noc3c2CCC[C@@]32CCCc3sc(N)c(C#N)c32)n1)[C@@H]1CCCN1C` (some centres unmarked) [II-95], for which the solubility at 24 h reads like this: under setting [1], greater than 134 µg/mL; under setting [2], greater than 121 µg/mL.
`C[C@H](Oc1cc(N2CCN3CCC3C2)nc(-c2onc3c2CCC[C@@]32CCCc3sc(N)c(C#N)c32)n1)[C@@H]1CCCN1C` (some centres unmarked) [I-9]: the solubility at 24 h runs as follows: under setting [1], greater than 149 µg/mL; under setting [2], greater than 147 µg/mL.
Regarding `C[C@H](Oc1cc(-c2ccn(C[C@@H](C)O)n2)nc(-c2noc3c2CCC[C@@]32CCCc3sc(N)c(C#N)c32)n1)[C@@H]1CCCN1C` [II-117], the solubility at 24 h was greater than 183 µg/mL under setting [1] and greater than 147 µg/mL under setting [2].
As for `C[C@H](Oc1cc(-n2cc(C3CC3)nn2)nc(-c2noc3c2CCC[C@@]32CCCc3sc(N)c(C#N)c32)n1)[C@@H]1CCCN1C` [II-118], the solubility at 24 h by setting is: under setting [1], 32 µg/mL (≈ 53.5 µM); under setting [2], less than 1 µg/mL.
Take `C[C@H](Oc1cc(-n2cc(Cn3cncn3)nn2)nc(-c2noc3c2CCC[C@@]32CCCc3sc(N)c(C#N)c32)n1)[C@@H]1CCCN1C` [II-124]: the solubility at 24 h is greater than 148 µg/mL under setting [1] and 108 µg/mL (≈ 169 µM) under setting [2].
In the case of `C[C@H](O)Cn1ccc(-c2cc(O[C@@H](C)[C@@H]3CCCN3C)nc(-c3noc4c3CCC[C@@]43CCCc4sc(N)c(C#N)c43)n2)n1` [II-112], the solubility at 24 h is, setting by setting: under setting [1], greater than 139 µg/mL; under setting [2], 121 µg/mL (≈ 197 µM).
For `C[C@H](Oc1cc(N2CCNC[C@@]23CCOC3)nc(-c2noc3c2CCC[C@@]32CCCc3sc(N)c(C#N)c32)n1)[C@@H]1CCCN1C` [II-51], the solubility at 24 h runs as follows: under setting [1], greater than 138 µg/mL; under setting [2], greater than 133 µg/mL.
In the case of `C[C@H](Oc1cc(N2CCNCC23CCOC3)nc(-c2onc3c2CCC[C@@]32CCCc3sc(N)c(C#N)c32)n1)[C@@H]1CCCN1C` (some centres unmarked) [I-10], the solubility at 24 h under setting [1] was greater than 141 µg/mL and the solubility at 24 h under setting [2] is greater than 136 µg/mL.
For the molecule `C[C@H](Oc1cc(N2CCC(C#N)C2)nc(-c2noc3c2CCC[C@@]32CCCc3sc(N)c(C#N)c32)n1)[C@@H]1CCCN1C` (some centres unmarked) [II-99], the solubility at 24 h by setting is: under setting [1], 115 µg/mL (≈ 197 µM); under setting [2], 84 µg/mL (≈ 144 µM).
Take `C[C@H](Oc1cc(-c2cn(C3COC3)nn2)nc(-c2noc3c2CCC[C@@]32CCCc3sc(N)c(C#N)c32)n1)[C@@H]1CCCN1C` [II-100]: the solubility at 24 h is, setting by setting: under setting [1], 120 µg/mL (≈ 196 µM); under setting [2], 57 µg/mL (≈ 92.9 µM).
The corresponding values for `CC(=O)N1CC=C(c2cc(O[C@@H](C)[C@@H]3CCCN3C)nc(-c3noc4c3CCC[C@@]43CCCc4sc(N)c(C#N)c43)n2)CC1` [II-81] are 114 µg/mL (≈ 186 µM) and 84 µg/mL (≈ 137 µM).
`C[C@H](Oc1cc(-c2ccn(-c3ccsc3)n2)nc(-c2noc3c2CCC[C@@]32CCCc3sc(N)c(C#N)c32)n1)[C@@H]1CCCN1C` [II-84]: the solubility at 24 h was less than 1 µg/mL under setting [1] and less than 1 µg/mL under setting [2].
As to `Cc1cn(C)nc1-c1cc(O[C@@H](C)[C@@H]2CCCN2C)nc(-c2noc3c2CCC[C@@]32CCCc3sc(N)c(C#N)c32)n1` [II-68], the solubility at 24 h is, setting by setting: under setting [1], 79 µg/mL (≈ 135 µM); under setting [2], 5 µg/mL (≈ 8.55 µM).
In the case of `CO[C@@H]1C[C@@H]([C@H](C)Oc2cc(-n3ccnc3)nc(-c3noc4c3CCC[C@@]43CCCc4sc(N)c(C#N)c43)n2)N(C)C1` [II-58], the solubility at 24 h is greater than 124 µg/mL under setting [1] and 2 µg/mL (≈ 3.41 µM) under setting [2].
Turning to `C[C@H](Oc1cc(C2CCOCC2)nc(-c2noc3c2CCC[C@@]32CCCc3sc(N)c(C#N)c32)n1)[C@@H]1CCCN1C` [II-76], the solubility at 24 h by setting is: under setting [1], greater than 122 µg/mL; under setting [2], 104 µg/mL (≈ 181 µM).
`C[C@H](Oc1cc(-c2ccn(C3COC3)n2)nc(-c2noc3c2CCC[C@@]32CCCc3sc(N)c(C#N)c32)n1)[C@@H]1C[C@H](F)CN1C` [II-83]: the solubility at 24 h under setting [1] was less than 1 µg/mL and the solubility at 24 h under setting [2] was less than 1 µg/mL.
Turning to `C[C@H](Oc1cc(-n2cc(Cn3ccnc3)nn2)nc(-c2noc3c2CCC[C@@]32CCCc3sc(N)c(C#N)c32)n1)[C@@H]1CCCN1C` [II-113], the solubility at 24 h reads like this: under setting [1], greater than 173 µg/mL; under setting [2], 107 µg/mL (≈ 168 µM).
Turning to `C[C@H](Oc1cc(-n2ccc(C#N)n2)nc(-c2noc3c2CCC[C@@]32CCCc3sc(N)c(C#N)c32)n1)[C@@H]1CCCN1C` [II-102], the solubility at 24 h by setting is: under setting [1], 24 µg/mL (≈ 41.3 µM); under setting [2], less than 1 µg/mL.
